Laboratory results reported in ChEMBL document CHEMBL4616586, “Design, synthesis and biological evaluation of substituted flavones and aurones as potential anti-influenza agents” (Bioorg Med Chem, 2020).
Calls of active or inactive are those of the source. No cut-off for these calls is given here.

Assays:
[1] = Cytotoxicity against dog MDCK cells assessed as reduction in cell viability by MTT assay; assay type: cell-based, Canis lupus familiaris
[2] = biological target: Neuraminidase (Influenza A virus (A/Puerto Rico/8/1934(H1N1)), UniProt P03468); test: Inhibition of Influenza A virus (H1N1) neuraminidase
[3] = Selectivity index, ratio of CC50 for dog MDCK cells to EC50 for Influenza A virus (H1N1) infected in dog MDCK cells; assay type: toxicity, cell-based; conditions: read-out: Ratio CC50/EC50
[4] = test system: Influenza A virus; test: Antiviral activity against Influenza A virus (H1N1) infected in dog MDCK cells assessed as reduction in log2HA titer incubated for 3 to 4 days by CPE assay; assay type: functional, organism-based
[5] = biological target: Neuraminidase (Influenza A virus (A/Puerto Rico/8/1934(H1N1))) (UniProt P03468); test: Non-competitive inhibition of Influenza A virus (H1N1) neuraminidase by Lineweaver-Burk plot analysis
Chain of Neuraminidase (Influenza A virus (A/Puerto Rico/8/1934(H1N1))) (P03468 whole entry): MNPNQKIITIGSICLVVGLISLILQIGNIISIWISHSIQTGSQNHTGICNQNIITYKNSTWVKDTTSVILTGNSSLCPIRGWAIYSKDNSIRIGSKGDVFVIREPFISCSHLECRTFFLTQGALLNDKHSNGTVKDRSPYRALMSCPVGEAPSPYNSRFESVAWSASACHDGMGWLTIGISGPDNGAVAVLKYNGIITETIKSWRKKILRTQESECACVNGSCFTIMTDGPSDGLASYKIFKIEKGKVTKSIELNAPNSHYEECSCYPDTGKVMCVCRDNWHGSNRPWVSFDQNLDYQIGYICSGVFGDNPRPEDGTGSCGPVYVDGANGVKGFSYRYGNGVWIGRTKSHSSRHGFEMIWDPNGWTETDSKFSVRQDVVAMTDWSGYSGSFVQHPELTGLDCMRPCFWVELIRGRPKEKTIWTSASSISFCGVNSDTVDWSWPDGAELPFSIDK

Chain of Neuraminidase (Influenza A virus (A/Puerto Rico/8/1934(H1N1)), UniProt P03468) (P03468 whole entry): as above

Compound	CC50 [1] [µM]	IC50 [2] [µM]	selectivity ratio [3]	EC50 [4] [µM]	inhibition [5]
COc1cccc(/C=C2\Oc3ccccc3C2=O)c1 [3'-METHOXY-AURONE]	7.81	–	–	–	–
O=C1/C(=C/c2cccc([N+](=O)[O-])c2)Oc2ccccc21	396	–	–	–	–
O=c1cc(-c2cccc(Cl)c2)oc2ccccc12	174	32.6	3650	0.0477	–
COc1cccc(-c2cc(=O)c3ccccc3o2)c1	263	10.8	21000	0.0126	–
O=C1/C(=C/c2ccc(Cl)cc2)Oc2ccccc21	272	45.4	5300	0.0514	–
O=c1c(O)c(-c2ccc(O)c(O)c2)oc2cc(O)cc(O)c12 [QUERCETIN]	–	7.75	3010	0.0845	Active
O=c1cc(-c2ccc(Cl)cc2)oc2ccccc12	115	27.7	3210	0.0359	–
COc1ccccc1-c1cc(=O)c2ccccc2o1	171	–	–	–	–
COc1ccc(-c2cc(=O)c3ccccc3o2)cc1 [4'-METHOXYFLAVONE]	192	8.74	20500	0.00936	Active
COc1ccc(/C=C2\Oc3ccccc3C2=O)cc1 [4'-METHOXY-AURONE]	169	37.5	4800	0.0353	Active
O=C1/C(=C/c2ccccc2Cl)Oc2ccccc21	339	–	–	–	–
CCC(CC)O[C@@H]1C=C(C(=O)O)C[C@H](N)[C@H]1NC(C)=O [OSELTAMIVIR CARBOXYLATE]	713	–	–	0.0071	–
COc1ccccc1/C=C1\Oc2ccccc2C1=O [(Z)-2'-METHOXYAURONE]	273	–	–	–	–
O=C1/C(=C/c2cccc(Cl)c2)Oc2ccccc21	26.9	–	–	–	–
O=c1cc(-c2ccccc2Cl)oc2ccccc12	388	–	–	–	–
O=C1/C(=C/c2ccc([N+](=O)[O-])cc2)Oc2ccccc21	213	41	4600	0.0463	–
O=c1cc(-c2cccc([N+](=O)[O-])c2)oc2ccccc12	269	15.4	19100	0.0141	–
